Data set [1] is described as follows: Remeasurement by XRPD after storage at ambient conditions. Type of data set: physicochemical. As to the method: For each experiment, the anti-solvent was added to each solvent vial, with a solvent to anti-solvent ratio of 1:0.25. In the cases where no precipitation occurred, this ratio was increased to 1:1, and if again no precipitation occurred the ratio was increased to 1:4, with a waiting time of 60 minutes between the additions (up to the third addition) and 35 minutes between the third addition and fourth addition. When no crystallization occurred or not enough solids precipitated for separation, samples were kept at 5° C. for 17 hours. The precipitated solids were separated from the liquids by centrifugation and decantation. When decantation could not be applied, the liquid was carefully removed using Pasteur's pipettes. The solids were dried at 200 mbar for 17 hours and analyzed by XRPD and digital imaging. In the cases where no precipitation occurred, the solvents were evaporated at 200 mbar for 17 hours prior to lowering the vacuum to 5 mbar. All obtained solids were analyzed by XRPD and digital imaging. The measuring plates containing the final solid were stored at ambient temperature for 5 weeks. The solid form was assessed again by XRPD. The arrows in Table 18 indicate if the form changed during storage.
A total of 68 slurry experiments were performed with brigatinib both at room temperature (20° C.) and 40° C., using 34 solvents. In all cases, a solvent volume of 250 μL was used. The slurries were stirred for two weeks. At the end of the slurry time, the vials were centrifuged and solids and mother liquids separated. The solids were analyzed wet and dry by XRPD and digital imaging. The measuring plates were then stored at ambient conditions for 3-4 weeks and another XRPD was obtained of the solid, any form change is shown by an arrow.
After completion of the cycling program, the solids were separated from the mother liquids by centrifugation, dried under 200 mbar for 48 hours (2-ethoxyethanol for 283 hours) and analyzed by XRPD and digital imaging. For the applied crystallization conditions and corresponding obtained solid forms, see Table 24. Solid form (or mixture) following the arrow (→) was obtained upon remeasurement by XRPD after storage of the measuring plates at ambient conditions for 5 weeks.
In Table 27, the occurrence of solid forms of brigatinib is given, together with the crystallization methods from which they crystallized and the related solvents. The table provides the results of over 600 experiments with solid forms measured by XRPD wet and/or dry (wet and dry count as separate experiments). In eight cases, no form assignment was made due to low yield. The solid form(s) following the arrow was/were obtained upon remeasurement by XRPD after storage of the measuring plates at ambient conditions for several weeks (2-5 weeks).

Data set [2] can be described thus: Vapor diffusion onto solids experiments. Particulars: room temperature, two weeks. Type of data set: physicochemical. As to the method: For the 34 vapor diffusion onto solids experiments, amorphous brigatinib was prepared by grinding the starting material for 4 hours. The vials containing the amorphous brigatinib were left open and placed in closed 40 mL vials containing 2 mL of solvent (see Table 21). The amorphous brigatinib was exposed to solvent vapors at room temperature for two weeks. At the end of the experiment time, the solids were harvested wet and dry and analyzed by XRPD and digital imaging. For the applied crystallization conditions and corresponding obtained solid forms see Table 22.

Turning to `COc1cc(N2CCC(N3CCN(C)CC3)CC2)ccc1Nc1ncc(Cl)c(Nc2ccccc2P(C)(C)=O)n1` [Form H, brigatinib], the “Solid form after storage (XRPD)” value in data set [1] (ambient conditions for 1-3 weeks) was “had partially transformed to Form A”.
Regarding `COc1cc(N2CCC(N3CCN(C)CC3)CC2)ccc1Nc1ncc(Cl)c(Nc2ccccc2P(C)(C)=O)n1` [Form F, brigatinib], the “Solid form after storage (XRPD)” value in data set [1] (heating or storage at ambient conditions for 8 weeks) is “desolvated to give Form A”.
Consider `COc1cc(N2CCC(N3CCN(C)CC3)CC2)ccc1Nc1ncc(Cl)c(Nc2ccccc2P(C)(C)=O)n1` [Forms A+K, brigatinib], for which the “Solid form after storage (XRPD)” value in data set [1] (mixture of Forms A+K, ambient conditions for 3 weeks) is “still a mixture of Forms A+K”.
`COc1cc(N2CCC(N3CCN(C)CC3)CC2)ccc1Nc1ncc(Cl)c(Nc2ccccc2P(C)(C)=O)n1` [Form G, brigatinib]: the “Solid form after storage (XRPD)” value in data set [1] (ambient conditions for 5 weeks) was “had transformed to Form A”.
On to `COc1cc(N2CCC(N3CCN(C)CC3)CC2)ccc1Nc1ncc(Cl)c(Nc2ccccc2P(C)(C)=O)n1` [Form E, brigatinib], for which, in data set [1] (several weeks at ambient temperature), the “Solid form after storage (XRPD)” value is “may revert to Form A”.
With `COc1cc(N2CCC(N3CCN(C)CC3)CC2)ccc1Nc1ncc(Cl)c(Nc2ccccc2P(C)(C)=O)n1` [Forms A+J, brigatinib], the “Solid form after storage (XRPD)” value in data set [1] (mixture of Forms A+J, ambient conditions for 3 weeks) is reported as “still a mixture of Forms A+J”.
`COc1cc(N2CCC(N3CCN(C)CC3)CC2)ccc1Nc1ncc(Cl)c(Nc2ccccc2P(C)(C)=O)n1` [A+L, brigatinib]: in data set [1] (mixtures A+L, ambient conditions for 3 weeks), the “Solid form after storage (XRPD)” value is “still a mixture of A+L”.
On to `COc1cc(N2CCC(N3CCN(C)CC3)CC2)ccc1Nc1ncc(Cl)c(Nc2ccccc2P(C)(C)=O)n1` [amorphous brigatinib], for which the “Form dry (XRPD)” value is given as “A + Am” in data set [2] (Chloroform vapors, no solids after 2 weeks); “Am” in data set [2] (Dichloromethane vapors, no solids after 2 weeks); “A + B + C” in data set [2] (Water vapors).

Values taken from patent US11427605B2, “Crystalline forms of 5-chloro-N4-[-2-(dimethylphosphoryl) phenyl]-N2-{2-methoxy-4-[4-(4-methylpiperazin-1-yl) piperidin-1-yl] phenyl} pyrimidine-2,4-diamine” (ARIAD Pharmaceuticals, Inc., priority 2014, dated 2022).
